How the values were obtained:
[1] = test system: scopolamine-induced cognitive impairment; experiment: Scopolamine-induced cognitive impairment, T-maze spontaneous alternation task; assay type: in vivo, CD-1 mice; set-up: key to Significance (compared to scopolamine only): * = p < 0.05; ** = p < 0.01; ns = not significant; conditions: mice; for Spontaneous alternations %: scopolamine 0.89 mg/kg; for Significance (compared to scopolamine only): spontaneous alternations
From the text: Mild cognitive impairment can be assessed in rodent models via delivery of various compounds that interfere with normal neurotransmitter signaling. Scopolamine is a compound that is well-known to antagonize muscarinic acetylcholine receptors, nicotinic receptors, as well as glutamatergic receptors such as NMDA receptors. Thus, delivery of scopolamine results in cognitive impairment, which can be assessed in a variety of cognitive tasks. Positive modulation of the HGF/MET system can promote NMDA receptor activation and results in pro-cognitive effects. Two test compounds, Compound 1a and Compound 5a, were evaluated for their ability to protect against scopolamine-induced cognitive impairment.
In this study, mild cognitive impairment was modeled in otherwise healthy male CD-1 mice (4-5 weeks old at study start) by acute delivery of 0.89 mg/kg scopolamine (dissolved in saline). Test compounds were administered via oral gavage 0.5 hours prior to scopolamine exposure, and cognitive performance was assessed in the T-maze spontaneous alternation task 0.5 hours after scopolamine exposure (1 hour following test compound exposure). The experimental protocol consisted of one single session, which started with 1 “forced-choice” trial, followed by 14 “free-choice” trials. In the first “forced-choice” trial, the animal was confined 5 seconds in the start arm and was then released while either the left or right goal arm was blocked by a horizontal door. After the mouse entered the open goal arm and returned to the start position, the left or right goal door was opened, and the animal was allowed to choose freely between the left and right goal arm (“free choice trials”). The animal was considered to have entered into an arm when it placed its four paws in the arm. Normal animals will choose to explore the previously-unexplored arm, which is recorded as a spontaneous alternation. […] The session was terminated, and the animal was removed from the maze as soon as 14 free-choice trials had been performed or 10 min had elapsed, whichever event occurred first.
This percentage was defined as entry into a different goal arm of the T maze over successive trials (e.g., left-right-left-right) and was calculated using the formula: (% alternations=Number of Alternations/14*100). Both compounds attenuated the degree of scopolamine-induced cognitive impairment, as indicated by increased percent of spontaneous alternations compared to scopolamine-only controls. Statistical analysis was accomplished via 1-way ANOVA with Dunnet's multiple comparisons post-test.

[2] = test system: Rat primary cortical neuron cultures; experiment: Protection from neurotoxicity in vitro (Cell Titer-Glo viability); assay type: cell-based; set-up: key to Protection of cell viability, statistical significance vs. insult control: NS=not significant; +=p<0.05; ++=p<0.01; +++=p<0.001
Experimental: HGF/MET signaling activation is expected to protect cells, including neurons, from cell death. […] Hydrogen peroxide (H2O2) treatment produces toxic oxidative stress. Bacteria-derived lipopolysaccharide (LPS) treatment induces inflammatory cell death. Treatment with excess glutamate (Glut) produces excitotoxicity in neuron cultures. Treatment with 1-methyl-4-phenylpyridinium (MPP^+) causes cell death by inhibition of mitochondrial function.
Rat primary cortical neuron cultures were grown at 37° C., 5% CO2 in Complete Neurobasal Medium supplemented with B27/GDNF/BDNF containing 10% FBS until maturity and were then seeded in 384-well plate at 5,000 cells/well. Cultures were then treated for 15 minutes with 1 uM, 100 nM, 10 nM, 1 nM, or 0.1 nM of compound 1a. Cells were then subjected to individual conditional insults for 24 hours at the following concentrations: H2O2 at 1 uM, LPS at 1 uM, glutamate at 25 uM, MPP+ at 500 uM. All treatments contained recombinant human HGF (R&D Systems) at a concentration of 5 ng/ml.
To quantify neuroprotection, cell viability was measured with the Cell Titer-Glo Luminescent Cell Viability Assay (Promega, Cat #G7571). Data was normalized to DMSO+HGF control set at 100% cell viability. Statistical analyses for each group (n=4) were performed using one-way ANOVA with Tukey's Multiple comparison test.
Data is reported as statistical significance vs. insult control, with NS=not significant, +=p<0.05, ++=p<0.01, and +++=p<0.001.

In the case of `CCC(C)CN1CC2N(C(=O)c3ccc(C(F)(F)F)cc3)CCC(=O)N2[C@@H](C)C1=O` (some centres unmarked) [Compound 1a], the Spontaneous alternations % ([1]; 0.5 mg/kg via PO) is reported as 52%, the “Significance (compared to scopolamine only)” value ([1]; 0.5 mg/kg via PO) is reported as “** (** = p < 0.01)” and the Spontaneous alternations % ([1]; 2 mg/kg via PO) is reported as 55%. For the same compound, the “Significance (compared to scopolamine only)” value ([1]; 2 mg/kg via PO) was “** (** = p < 0.01)”, the Spontaneous alternations % ([1]; 8 mg/kg via PO) was 47% and the “Significance (compared to scopolamine only)” value ([1]; 8 mg/kg via PO) was “ns”. For the same compound, the Spontaneous alternations % ([1]; 16 mg/kg via PO) was 51%, the “Significance (compared to scopolamine only)” value ([1]; 16 mg/kg via PO) was “* (* = p < 0.05)” and the Spontaneous alternations % ([1]; 32 mg/kg via PO) was 55%. For the same compound, the “Significance (compared to scopolamine only)” value ([1]; 32 mg/kg via PO) was “** (** = p < 0.01)”, the “Neuroprotective effect on rat neurons in culture” value ([2]; broad range of concentrations, entire cohort of insults tested) was “effective neuroprotective treatment” and the “Protection of cell viability, statistical significance vs. insult control” value ([2]; insult Glutamate (25 uM) 24 hours, 0.1 nM + HGF (5 ng/ml)) was “+++ (+++=p<0.001)”. For the same compound, the “Protection of cell viability, statistical significance vs. insult control” value ([2]; insult Glutamate (25 uM) 24 hours, 1 nM + HGF (5 ng/ml)) was “+++ (+++=p<0.001)”, the “Protection of cell viability, statistical significance vs. insult control” value ([2]; insult Glutamate (25 uM) 24 hours, 100 nM (first column so headed) + HGF (5 ng/ml)) was “+++ (+++=p<0.001)” and the “Protection of cell viability, statistical significance vs. insult control” value ([2]; insult Glutamate (25 uM) 24 hours, 100 nM (second column so headed) + HGF (5 ng/ml)) was “+++ (+++=p<0.001)”. The “Protection of cell viability, statistical significance vs. insult control” value ([2]; insult Glutamate (25 uM) 24 hours, 1 uM + HGF (5 ng/ml)) was “+++ (+++=p<0.001)”, the “Protection of cell viability, statistical significance vs. insult control” value ([2]; insult H2O2 (1 uM) 24 hours, 0.1 nM + HGF (5 ng/ml)) was “+++ (+++=p<0.001)” and the “Protection of cell viability, statistical significance vs. insult control” value ([2]; insult H2O2 (1 uM) 24 hours, 1 nM + HGF (5 ng/ml)) was “+++ (+++=p<0.001)”. The “Protection of cell viability, statistical significance vs. insult control” value ([2]; insult H2O2 (1 uM) 24 hours, 100 nM (first column so headed) + HGF (5 ng/ml)) was “+++ (+++=p<0.001)”, the “Protection of cell viability, statistical significance vs. insult control” value ([2]; insult H2O2 (1 uM) 24 hours, 100 nM (second column so headed) + HGF (5 ng/ml)) was “+++ (+++=p<0.001)” and the “Protection of cell viability, statistical significance vs. insult control” value ([2]; insult H2O2 (1 uM) 24 hours, 1 uM + HGF (5 ng/ml)) was “+++ (+++=p<0.001)”. For the same compound, the “Protection of cell viability, statistical significance vs. insult control” value ([2]; insult LPS (1 uM) 24 hours, 0.1 nM + HGF (5 ng/ml)) was “+++ (+++=p<0.001)”, the “Protection of cell viability, statistical significance vs. insult control” value ([2]; insult LPS (1 uM) 24 hours, 1 nM + HGF (5 ng/ml)) was “NS” and the “Protection of cell viability, statistical significance vs. insult control” value ([2]; insult LPS (1 uM) 24 hours, 100 nM (first column so headed) + HGF (5 ng/ml)) was “+++ (+++=p<0.001)”. The “Protection of cell viability, statistical significance vs. insult control” value ([2]; insult LPS (1 uM) 24 hours, 100 nM (second column so headed) + HGF (5 ng/ml)) was “+++ (+++=p<0.001)”, the “Protection of cell viability, statistical significance vs. insult control” value ([2]; insult LPS (1 uM) 24 hours, 1 uM + HGF (5 ng/ml)) was “+++ (+++=p<0.001)” and the “Protection of cell viability, statistical significance vs. insult control” value ([2]; insult MPP+ (500 uM) 24 hours, 0.1 nM + HGF (5 ng/ml)) was “+++ (+++=p<0.001)”. For the same compound, the “Protection of cell viability, statistical significance vs. insult control” value ([2]; insult MPP+ (500 uM) 24 hours, 1 nM + HGF (5 ng/ml)) was “+++ (+++=p<0.001)”, the “Protection of cell viability, statistical significance vs. insult control” value ([2]; insult MPP+ (500 uM) 24 hours, 100 nM (first column so headed) + HGF (5 ng/ml)) was “+++ (+++=p<0.001)” and the “Protection of cell viability, statistical significance vs. insult control” value ([2]; insult MPP+ (500 uM) 24 hours, 100 nM (second column so headed) + HGF (5 ng/ml)) was “+++ (+++=p<0.001)”. The “Protection of cell viability, statistical significance vs. insult control” value ([2]; insult MPP+ (500 uM) 24 hours, 1 uM + HGF (5 ng/ml)) was “+++ (+++=p<0.001)”.
For `CCC(C)CN1CC2N(Cc3ccc(C(F)(F)F)cc3)CCC(=O)N2[C@@H](C)C1=O` (some centres unmarked) [Compound 5a], the Spontaneous alternations % ([1]; 1.25 mg/kg via PO) was 51%, the “Significance (compared to scopolamine only)” value ([1]; 1.25 mg/kg via PO) was “* (* = p < 0.05)” and the Spontaneous alternations % ([1]; 2.5 mg/kg via PO) was 57%. The “Significance (compared to scopolamine only)” value ([1]; 2.5 mg/kg via PO) was “** (** = p < 0.01)”, the Spontaneous alternations % ([1]; 5 mg/kg via PO) was 52% and the “Significance (compared to scopolamine only)” value ([1]; 5 mg/kg via PO) was “* (* = p < 0.05)”. For the same compound, the Spontaneous alternations % ([1]; 10 mg/kg via PO) was 55%, the “Significance (compared to scopolamine only)” value ([1]; 10 mg/kg via PO) was “** (** = p < 0.01)” and the Spontaneous alternations % ([1]; 20 mg/kg via PO) was 52%. For the same compound, the “Significance (compared to scopolamine only)” value ([1]; 20 mg/kg via PO) was “* (* = p < 0.05)”.

— patent US20250041307A1, “Uses of Bicyclic Compounds for the Treatment of Diseases” (Athira Pharma, Inc., priority 2021, published 2025)
